Patent US7322965B2, “Infection-resistant medical devices” (priority 2002, dated 2008)
Values after ≈ are worked out from the molar mass of the structure shown. Read-outs that look alike come from different tables or passages of the source.

Experiments:
[1] = test system: S. aureus UC-20205; assay: Determination of minimum inhibitory concentration (microdilution); type: cell-based; conditions: Staphylococcus aureus, UC20205, 18 h
[2] = test system: S. aureus UC-20206; assay: as above; type: cell-based; conditions: Staphylococcus aureus, UC20206, 18 h
[3] = Resistance to thermal decomposition; type: physicochemical
Excerpt: The medical device can be, for example, a suture, orthopedic appliance, stent, catheter, guidewire, shunt (e.g., hemodialysis shunt or cerebrospinal shunt), prosthesis (e.g., prosthetic heart valve or prosthetic joint), cardiac pacemaker, neuronal stimulator, or vascular graft. The medical device can be made of biomaterials (i.e., biologically-compatible materials known to those skilled in the art, such as metal, polymeric, or ceramic materials). The antimicrobial agent can be incorporated into the medical device according to methods known to those skilled in the art, such as by immersing the medical device in a solution (e.g., an aqueous solution) containing the antimicrobial agent, or, for example, by methods described in one of the following references: U.S. Pat. No. 3,987,797; U.S. Pat. No. 4,563,485; U.S. Pat. No. 4,875,479; U.S. Pat. No. 4,946,870; U.S. Pat. No. 5,306,289; U.S. Pat. No. 5,584,877; U.S. Pat. No. 5,607,685; U.S. Pat. No. 5,788,979; U.S. Pat. No. 6,143,037; U.S. Pat. No. 6,238,687; WO00/56283; and WO 01/28601, the disclosures of which are incorporated herein by reference. The medical device can include a polymeric material, and the polymeric material can be co-extruded with the antibacterial agent. […]

[4] = test system: S. epidermidis UC-20207; assay: Determination of minimum inhibitory concentration (microdilution); type: cell-based; conditions: Staphylococcus epidermidis, read-out: MIC (minimum inhibitory concentration)
[5] = test system: bacterial adherence; conditions: subinhibitory concentrations; other investigators; cited from earlier work

## CC(=O)NC[C@H]1CN(c2ccc(N3CCOCC3)c(F)c2)C(=O)O1 [Linezolid, (S)-N-[[3-[3-fluoro-4-(4-morpholinyl)phenyl]-2-oxo-5-oxazolidinyl]methyl]acetamide]
[1]
  MIC: 2 µg/mL (≈ 5.93 µM)
[2]
  MIC: 4 µg/mL (≈ 11.9 µM)
[3]
  temperature up to which resistant to thermal decomposition: at least 121 °C
[4]; UC20207, S. epidermidis UC-20207, 18 h
  MIC: 2 µg/mL (≈ 5.93 µM)

## CN[C@H](CC(C)C)C(=O)N[C@H]1C(=O)N[C@@H](CC(N)=O)C(=O)N[C@H]2C(=O)N[C@H]3C(=O)N[C@H](C(=O)N[C@H](C(=O)O)c4cc(O)cc(O)c4-c4cc3ccc4O)[C@H](O)c3ccc(c(Cl)c3)Oc3cc2cc(c3O[C@@H]2O[C@H](CO)[C@@H](O)[C@H](O)[C@H]2O[C@H]2C[C@](C)(N)[C@H](O)[C@H](C)O2)Oc2ccc(cc2Cl)[C@H]1O [Vancomycin]
[5]
  activity against bacterial adherence: minimal or no activity against bacterial adherence
[4]; UC20207, 18 h
  MIC: 2 µg/mL (≈ 1.38 µM)
